According to article PMC9124820, “In vitro evaluation of fenfluramine and norfenfluramine as victims of drug interactions” (Pharmacology Research & Perspectives, 2022):

Assays:
[1] = molecular target: T1, OAT3 (Homo sapiens, UniProt Q8TCC7); experiment: Transporter substrate determination, uptake in HEK293-OAT3 cells; format: in vitro ADME; details: for Maximum Ratio (uptake in transporter‐expressing cells to empty‐vector control cells): HEK293‐OAT3, 0.1, 1, 10 µM, threshold ≥2‐fold; for substrate of the transporter: OAT3
T1 construct: host or cells: HEK293
T1 sequence (Q8TCC7 1-542): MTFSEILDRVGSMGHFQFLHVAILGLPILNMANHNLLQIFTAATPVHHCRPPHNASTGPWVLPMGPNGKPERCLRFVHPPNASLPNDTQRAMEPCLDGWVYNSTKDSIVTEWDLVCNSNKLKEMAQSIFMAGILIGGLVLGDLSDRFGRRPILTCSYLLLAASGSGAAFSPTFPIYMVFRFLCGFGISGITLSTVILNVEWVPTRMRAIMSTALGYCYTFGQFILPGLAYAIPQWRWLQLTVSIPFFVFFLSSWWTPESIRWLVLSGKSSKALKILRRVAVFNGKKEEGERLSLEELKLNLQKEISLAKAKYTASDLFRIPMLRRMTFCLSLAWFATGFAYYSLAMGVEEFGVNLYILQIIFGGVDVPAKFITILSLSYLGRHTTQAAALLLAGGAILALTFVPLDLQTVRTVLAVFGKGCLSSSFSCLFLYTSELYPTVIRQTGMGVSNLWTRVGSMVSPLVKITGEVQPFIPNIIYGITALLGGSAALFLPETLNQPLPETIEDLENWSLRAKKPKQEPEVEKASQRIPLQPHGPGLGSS
Description: (§1) LC‐MS/MS analyses to assess metabolic stability and identify the transporter substrate were performed using an API 4000 QTRAP mass spectrometer (SCIEX, Framingham, MA) with electrospray ionization in positive mode. Chromatography was performed using an Atlantis dC18 analytical column (100 × 2.1 mm, 5 µm; Waters Corporation, Milford, MA). Mobile phases were 0.2% v/v formic acid in water and 0.2% v/v formic acid in acetonitrile. For metabolic stability experiments, FFA and metabolites were eluted at a flow rate of 0.6 mL/min, with a linear gradient of 20%−80% acetonitrile from 0.30−2.0 min. For transporter substrate experiments, the gradient was slightly modified to achieve suitable chromatography. The mass transitions monitored were 232.0 > 159.0 for FFA and 348.0 > 330.0 for 1ʹ‐OH‐midazolam‐d4 internal standard.
(§2) FFA and nFFA were evaluated as substrates of the transporters breast cancer resistance protein (BCRP), organic anion transporter (OAT)1, OAT3, organic cation transporter (OCT)2, MATE1, MATE2‐K, and P‐glycoprotein multidrug transporter (P‐gp; also known as MDR1 and ABCB1), according to published methods.[25], [26], [27], [28], [29] Madin‐Darby canine kidney (MDCKII)‐BCRP cells (Netherlands Cancer Institute, Amsterdam, Netherlands) or human embryonic kidney (HEK)293 cells transfected with other transporters (Sekisui Medical Co., Ltd., Tokyo, Japan) were used. Transporter‐transfected and control cells were incubated with FFA or nFFA (0.1, 1, or 10 μM), and the amount of FFA and nFFA accumulated in the cells was measured by LC‐MS/MS as described above. The accumulation of positive control substrates in the presence and absence of an inhibitor served as a positive control for transporter function. […] BCRP substrate determination was made by bi‐directional permeability across MDCKII‐BCRP and control cells cultured on 24‐well transwell plates. Incubation medium containing probe substrate was added. Ten minutes later, transepithelial electrical resistance (TEER) was recorded and cells were preincubated at 37 ± 2°C for 30−60 min before FFA or nFFA or positive control substrate with the solvent control or positive control inhibitor was added to the donor (apical) chamber. […] Samples containing FFA, nFFA, or probe substrate were mixed with internal standard and analyzed by LC‐MS/MS. […] An aliquot was added to 96‐well plate containing scintillation fluid that was analyzed by a MicroBeta^2 scintillation counter (Perkin Elmer, Waltham, MA). Protein concentration was determined by a bicinchoninic acid (BCA) protein assay according to the manufacturer’s protocol (Thermo Fisher Scientific, Waltham, MA). Non‐radiolabeled compounds were resuspended in a 50:50 v/v methanol:water solution containing internal standard and were analyzed by LC‐MS/MS. […]

[2] = molecular target: T2, OCT2 (Homo sapiens, UniProt O15244); experiment: Transporter substrate determination, uptake in HEK293-OCT2 cells; format: in vitro ADME; details: for Maximum Ratio (uptake in transporter‐expressing cells to empty‐vector control cells): HEK293‐OCT2, 0.1, 1, 10 µM, threshold ≥2‐fold; for substrate of the transporter: OCT2
T2 construct: host or cells: HEK293
T2 sequence (O15244 1-555): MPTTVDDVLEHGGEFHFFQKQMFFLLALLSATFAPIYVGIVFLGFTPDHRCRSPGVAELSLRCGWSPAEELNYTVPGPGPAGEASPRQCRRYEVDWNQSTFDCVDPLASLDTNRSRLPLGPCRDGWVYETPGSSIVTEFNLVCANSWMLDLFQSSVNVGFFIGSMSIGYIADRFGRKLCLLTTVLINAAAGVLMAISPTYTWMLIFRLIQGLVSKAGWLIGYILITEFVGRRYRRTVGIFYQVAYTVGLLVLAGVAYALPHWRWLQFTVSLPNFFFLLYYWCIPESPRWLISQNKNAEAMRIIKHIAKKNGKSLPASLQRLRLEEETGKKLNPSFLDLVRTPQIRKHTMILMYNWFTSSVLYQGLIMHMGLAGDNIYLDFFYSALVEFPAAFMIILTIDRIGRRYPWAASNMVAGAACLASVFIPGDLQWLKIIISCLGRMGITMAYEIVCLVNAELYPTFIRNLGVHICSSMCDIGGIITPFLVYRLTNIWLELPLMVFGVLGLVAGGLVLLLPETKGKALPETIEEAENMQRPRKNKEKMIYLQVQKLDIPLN
Description: as §1, §2

[3] = molecular target: T3, MATE2‐K (Homo sapiens, UniProt Q86VL8); experiment: Transporter substrate determination, uptake in HEK293-MATE2K cells; format: in vitro ADME; details: for Maximum Ratio (uptake in transporter‐expressing cells to empty‐vector control cells): HEK293‐MATE2K, 0.1, 1, 10 µM, threshold ≥2‐fold; for substrate of the transporter: MATE2‐K
T3 construct: host or cells: HEK293
T3 sequence (Q86VL8 1-566 isoform Q86VL8-3): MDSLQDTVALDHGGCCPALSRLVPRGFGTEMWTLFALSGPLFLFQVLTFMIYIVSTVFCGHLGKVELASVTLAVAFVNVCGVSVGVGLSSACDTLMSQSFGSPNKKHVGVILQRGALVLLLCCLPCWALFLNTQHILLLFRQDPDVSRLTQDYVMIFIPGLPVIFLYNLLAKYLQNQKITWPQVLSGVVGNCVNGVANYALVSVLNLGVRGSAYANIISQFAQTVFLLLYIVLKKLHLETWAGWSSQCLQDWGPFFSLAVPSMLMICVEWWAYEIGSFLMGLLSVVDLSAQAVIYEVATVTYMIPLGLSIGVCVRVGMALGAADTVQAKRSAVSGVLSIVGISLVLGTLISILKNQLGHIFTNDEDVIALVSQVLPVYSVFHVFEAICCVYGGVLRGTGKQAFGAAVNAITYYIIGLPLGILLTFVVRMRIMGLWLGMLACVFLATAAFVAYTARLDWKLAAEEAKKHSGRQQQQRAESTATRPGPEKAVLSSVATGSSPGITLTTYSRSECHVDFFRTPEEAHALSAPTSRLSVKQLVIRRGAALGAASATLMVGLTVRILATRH
Description: as §1, §2

[4] = molecular target: P‐gp (Homo sapiens, UniProt P08183); experiment: Transporter substrate determination, efflux ratio across Caco-2 cells (P-gp)
P‐gp, sequence (P08183 whole entry): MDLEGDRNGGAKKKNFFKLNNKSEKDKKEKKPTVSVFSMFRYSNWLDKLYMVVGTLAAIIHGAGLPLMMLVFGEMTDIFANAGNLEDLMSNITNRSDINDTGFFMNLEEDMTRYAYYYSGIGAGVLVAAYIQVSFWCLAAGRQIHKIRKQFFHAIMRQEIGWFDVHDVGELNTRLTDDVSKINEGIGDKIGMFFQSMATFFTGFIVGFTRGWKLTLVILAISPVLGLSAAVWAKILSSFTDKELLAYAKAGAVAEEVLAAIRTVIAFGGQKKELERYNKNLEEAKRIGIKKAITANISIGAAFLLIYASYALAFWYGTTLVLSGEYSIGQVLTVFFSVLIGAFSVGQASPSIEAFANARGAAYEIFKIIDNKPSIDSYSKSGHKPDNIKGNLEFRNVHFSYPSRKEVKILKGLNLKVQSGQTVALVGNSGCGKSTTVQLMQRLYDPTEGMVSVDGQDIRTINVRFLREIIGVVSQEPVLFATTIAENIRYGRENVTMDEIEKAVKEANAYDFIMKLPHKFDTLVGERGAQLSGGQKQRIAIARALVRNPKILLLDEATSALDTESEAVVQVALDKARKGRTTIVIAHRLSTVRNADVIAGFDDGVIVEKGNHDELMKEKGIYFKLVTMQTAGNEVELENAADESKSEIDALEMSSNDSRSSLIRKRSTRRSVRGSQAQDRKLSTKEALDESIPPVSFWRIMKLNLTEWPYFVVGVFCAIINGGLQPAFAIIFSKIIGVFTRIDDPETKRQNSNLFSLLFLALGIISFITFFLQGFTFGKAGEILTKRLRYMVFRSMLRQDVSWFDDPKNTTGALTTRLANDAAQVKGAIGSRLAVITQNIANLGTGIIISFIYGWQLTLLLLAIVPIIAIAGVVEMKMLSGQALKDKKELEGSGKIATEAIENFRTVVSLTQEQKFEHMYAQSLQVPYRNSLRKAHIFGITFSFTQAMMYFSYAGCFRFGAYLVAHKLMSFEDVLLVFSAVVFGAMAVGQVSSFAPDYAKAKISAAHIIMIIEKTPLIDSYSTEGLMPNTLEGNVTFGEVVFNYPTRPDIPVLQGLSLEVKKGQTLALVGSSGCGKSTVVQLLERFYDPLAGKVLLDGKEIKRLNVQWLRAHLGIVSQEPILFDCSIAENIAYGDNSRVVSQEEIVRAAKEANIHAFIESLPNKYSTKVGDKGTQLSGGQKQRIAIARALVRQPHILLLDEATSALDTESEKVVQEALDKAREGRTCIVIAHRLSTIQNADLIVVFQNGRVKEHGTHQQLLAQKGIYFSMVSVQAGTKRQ

| SMILES | Maximum Ratio (uptake in transporter‐expressing cells to empty‐vector control cells) [1] | substrate of the transporter [1] | Maximum Ratio (uptake in transporter‐expressing cells to empty‐vector control cells) [2] | substrate of the transporter [2] | Maximum Ratio (uptake in transporter‐expressing cells to empty‐vector control cells) [3] | substrate of the transporter [3] | substrate of the transporter [4] |
| --- | --- | --- | --- | --- | --- | --- | --- |
| CCNC(C)Cc1cccc(C(F)(F)F)c1 (racemic) [FFA, (RS)‐ethyl (α‐methyl‐3‐trifluoromethylphenethyl)amine] | 1.15 | not substrates | 1.09 | not substrates | 1.40 | not substrates | not substrates |
| CC(N)Cc1cccc(C(F)(F)F)c1.Cl (centres unmarked) [nFFA, 1‐(3‐(trifluoromethyl)phenyl)propan‐2‐amine hydrochloride] | 1.74 | not substrates | 1.16 | not substrates | 1.50 | not substrates | not substrates |
